What was measured:
[1] = molecular target: T1, 5-hydroxytryptamine receptor 3A (Homo sapiens) (UniProt P46098); assay: Inhibition of Serotonin (5-Hydroxytryptamine) 5-HT3 at 10 µM in the Eurofins-Panlabs radioligand binding assay (Eurofins_assay_271910); set-up: ligand concentration 0.69 nM; conditions: Compound concentration 10.0 uM
T1 sequence (whole entry): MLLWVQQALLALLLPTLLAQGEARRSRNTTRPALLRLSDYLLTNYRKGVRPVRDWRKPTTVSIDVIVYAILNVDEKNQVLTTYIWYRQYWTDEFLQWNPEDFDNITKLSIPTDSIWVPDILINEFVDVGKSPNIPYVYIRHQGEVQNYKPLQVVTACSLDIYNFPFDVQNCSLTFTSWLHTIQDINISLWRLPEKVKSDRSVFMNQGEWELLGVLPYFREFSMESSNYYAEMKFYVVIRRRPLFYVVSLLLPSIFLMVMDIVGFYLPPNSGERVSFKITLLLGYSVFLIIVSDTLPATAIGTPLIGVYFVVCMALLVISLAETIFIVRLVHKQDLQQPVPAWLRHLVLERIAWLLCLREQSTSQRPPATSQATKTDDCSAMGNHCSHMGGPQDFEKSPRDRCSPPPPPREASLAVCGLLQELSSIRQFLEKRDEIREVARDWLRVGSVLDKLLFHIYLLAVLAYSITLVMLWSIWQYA

[2] = molecular target: Type-2 angiotensin II receptor (Homo sapiens) (UniProt P50052); conditions: Compound concentration 10.0 uM
[3] = molecular target: Mu-type opioid receptor (Homo sapiens) (UniProt P35372); conditions: Compound concentration 10.0 uM
[4] = molecular target: Adenosine receptor A1 (Homo sapiens) (UniProt P30542); conditions: Compound concentration 10.0 uM
[5] = molecular target: 5-hydroxytryptamine receptor 4 (Homo sapiens) (UniProt Q13639); assay: Inhibition of Serotonin (5-Hydroxytryptamine) 5-HT4 at 10 µM in the Eurofins-Panlabs radioligand binding assay (Eurofins_assay_272000); conditions: Cavia porcellus; Compound concentration 10.0 uM
[6] = molecular target: GABA-A receptor; anion channel (Rattus norvegicus) (UniProt O09028+P15431+P18506+P18508+P19969+P20236+P23574+P23576+P28471+P28473+P30191+P62813+P63079+P63138+Q91ZM7+Q9ES14); assay: Inhibition of GABAA, Muscimol, Central at 10 µM in the Eurofins-Panlabs radioligand binding assay (Eurofins_assay_226500); assay type: protein-complex assay; conditions: Compound concentration 10.0 uM
CYP2C9 = CYP2C9 (Homo sapiens, UniProt P11712); assay: CYP450, 2C9 Eurofins-Panlabs enzyme assay; conditions: compound concentration 10 uM
Caspase-1 (Homo sapiens) = Caspase-1 (Homo sapiens) (UniProt P29466); assay: Inhibition of Peptidase, CASP1 (Caspase 1) at 10 µM in the Eurofins-Panlabs enzyme assay (Eurofins_assay_163000); conditions: Compound concentration 10.0 uM
[7] = molecular target: Beta-3 adrenergic receptor (Homo sapiens) (UniProt P13945); conditions: Compound concentration 10.0 uM
[8] = molecular target: Polyunsaturated fatty acid lipoxygenase ALOX15 (Homo sapiens) (UniProt P16050); assay: Inhibition of Lipoxygenase 15-LO at 10 µM in the Eurofins-Panlabs enzyme assay (Eurofins_assay_138000); conditions: Oryctolagus cuniculus; Compound concentration 10.0 uM
[9] = molecular target: C-C chemokine receptor type 2 (Homo sapiens) (UniProt P41597); assay: Inhibition of Chemokine CCR2B at 10 µM in the Eurofins-Panlabs radioligand binding assay (Eurofins_assay_217550); conditions: Compound concentration 10.0 uM
CYP2D6 = CYP2D6 (Homo sapiens, UniProt P10635); assay: CYP450, 2D6 Eurofins-Panlabs enzyme assay; conditions: compound concentration 10 uM
[10] = molecular target: Mitogen-activated protein kinase 14 (Homo sapiens) (UniProt Q16539); assay: Inhibition of Protein Serine/Threonine Kinase, MAPK14 (p38α) at 10 µM in the Eurofins-Panlabs enzyme assay (Eurofins_assay_176610); set-up: substrate with concentration; conditions: Compound concentration 10.0 uM
[11] = molecular target: Delta-type opioid receptor (Homo sapiens) (UniProt P41143); conditions: Compound concentration 10.0 uM
[12] = molecular target: T2, Alpha-2B adrenergic receptor (Homo sapiens) (UniProt P18089); conditions: Compound concentration 10.0 uM
T2 sequence (whole entry): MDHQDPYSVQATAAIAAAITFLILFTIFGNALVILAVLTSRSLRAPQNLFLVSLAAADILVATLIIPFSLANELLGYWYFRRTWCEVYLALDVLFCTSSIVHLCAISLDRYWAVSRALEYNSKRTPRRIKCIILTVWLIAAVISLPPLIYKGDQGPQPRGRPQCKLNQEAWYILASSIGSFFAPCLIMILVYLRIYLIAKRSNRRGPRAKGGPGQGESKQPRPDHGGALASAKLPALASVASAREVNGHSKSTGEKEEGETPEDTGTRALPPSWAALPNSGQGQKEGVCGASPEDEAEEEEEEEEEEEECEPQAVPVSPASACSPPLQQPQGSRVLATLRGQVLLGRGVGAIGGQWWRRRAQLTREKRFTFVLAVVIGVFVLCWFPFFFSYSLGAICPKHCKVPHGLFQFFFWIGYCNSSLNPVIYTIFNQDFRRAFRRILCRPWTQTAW

[13] = molecular target: B2 bradykinin receptor (Homo sapiens) (UniProt P30411); conditions: Compound concentration 10.0 uM
[14] = molecular target: T3, Muscarinic acetylcholine receptor M5 (Homo sapiens) (UniProt P08912); assay: Inhibition of Muscarinic M5 at 10 µM in the Eurofins-Panlabs radioligand binding assay (Eurofins_assay_253010); set-up: ligand concentration 0.8 nM; conditions: Compound concentration 10.0 uM
T3 sequence (whole entry): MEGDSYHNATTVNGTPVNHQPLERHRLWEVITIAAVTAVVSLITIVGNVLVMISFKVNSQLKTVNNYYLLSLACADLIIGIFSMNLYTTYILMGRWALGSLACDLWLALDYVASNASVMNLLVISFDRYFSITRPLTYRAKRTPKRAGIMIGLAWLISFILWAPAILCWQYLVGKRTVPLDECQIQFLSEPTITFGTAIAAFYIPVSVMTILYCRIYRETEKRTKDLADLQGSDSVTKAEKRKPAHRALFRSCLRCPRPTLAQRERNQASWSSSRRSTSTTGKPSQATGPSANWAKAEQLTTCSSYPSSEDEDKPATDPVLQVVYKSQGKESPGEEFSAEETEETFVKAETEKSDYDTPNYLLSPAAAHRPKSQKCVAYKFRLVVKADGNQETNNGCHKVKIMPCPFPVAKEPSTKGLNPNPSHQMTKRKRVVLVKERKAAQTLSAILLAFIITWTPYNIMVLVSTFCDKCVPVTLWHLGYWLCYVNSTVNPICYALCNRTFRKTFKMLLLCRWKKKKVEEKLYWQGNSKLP

[15] = molecular target: Mitogen-activated protein kinase 1 (Homo sapiens) (UniProt P28482); assay: Inhibition of Protein Serine/Threonine Kinase, MAPK1 (ERK2) at 10 µM in the Eurofins-Panlabs enzyme assay (Eurofins_assay_171120); set-up: substrate with concentration; conditions: Compound concentration 10.0 uM
[16] = molecular target: Glutamate receptor ionotropic, kainate (Rattus norvegicus) (UniProt P22756+Q01812+P42260+P42264+Q63273); assay: Inhibition of Glutamate, Kainate at 10 µM in the Eurofins-Panlabs radioligand binding assay (Eurofins_assay_232700); conditions: Compound concentration 10.0 uM

Chain of C-C chemokine receptor type 2 (Homo sapiens) (P41597 whole entry, looked up): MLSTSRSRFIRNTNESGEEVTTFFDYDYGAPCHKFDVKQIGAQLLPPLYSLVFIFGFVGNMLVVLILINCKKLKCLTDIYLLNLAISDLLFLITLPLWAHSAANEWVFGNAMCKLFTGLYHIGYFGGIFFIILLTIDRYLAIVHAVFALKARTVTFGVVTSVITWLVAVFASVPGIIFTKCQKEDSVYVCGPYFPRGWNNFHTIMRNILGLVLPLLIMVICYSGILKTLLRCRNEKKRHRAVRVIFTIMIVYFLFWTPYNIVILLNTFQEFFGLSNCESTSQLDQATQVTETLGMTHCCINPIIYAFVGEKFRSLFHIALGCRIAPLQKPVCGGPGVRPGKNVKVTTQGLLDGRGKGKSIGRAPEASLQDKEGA
Chain of Type-2 angiotensin II receptor (Homo sapiens) (P50052 whole entry): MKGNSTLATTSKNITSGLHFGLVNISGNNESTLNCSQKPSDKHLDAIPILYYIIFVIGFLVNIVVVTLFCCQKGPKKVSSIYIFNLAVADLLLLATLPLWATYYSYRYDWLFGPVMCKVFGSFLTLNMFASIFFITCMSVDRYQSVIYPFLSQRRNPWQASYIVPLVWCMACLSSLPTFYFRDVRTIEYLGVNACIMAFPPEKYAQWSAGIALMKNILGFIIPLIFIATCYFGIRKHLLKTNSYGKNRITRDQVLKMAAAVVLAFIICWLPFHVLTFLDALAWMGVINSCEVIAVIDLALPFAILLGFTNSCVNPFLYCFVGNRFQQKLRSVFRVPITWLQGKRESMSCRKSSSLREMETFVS
Chain of Adenosine receptor A1 (Homo sapiens) (P30542 whole entry): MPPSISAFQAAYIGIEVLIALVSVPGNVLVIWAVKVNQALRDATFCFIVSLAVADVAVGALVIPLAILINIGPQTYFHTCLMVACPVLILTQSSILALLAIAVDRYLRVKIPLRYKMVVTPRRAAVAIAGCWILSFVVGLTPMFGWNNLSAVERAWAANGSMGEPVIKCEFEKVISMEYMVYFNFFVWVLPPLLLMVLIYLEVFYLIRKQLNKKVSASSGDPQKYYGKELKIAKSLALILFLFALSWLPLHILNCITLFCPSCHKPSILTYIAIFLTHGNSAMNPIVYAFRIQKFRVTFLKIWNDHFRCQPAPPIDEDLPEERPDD
Chain of Mitogen-activated protein kinase 1 (Homo sapiens) (P28482 whole entry): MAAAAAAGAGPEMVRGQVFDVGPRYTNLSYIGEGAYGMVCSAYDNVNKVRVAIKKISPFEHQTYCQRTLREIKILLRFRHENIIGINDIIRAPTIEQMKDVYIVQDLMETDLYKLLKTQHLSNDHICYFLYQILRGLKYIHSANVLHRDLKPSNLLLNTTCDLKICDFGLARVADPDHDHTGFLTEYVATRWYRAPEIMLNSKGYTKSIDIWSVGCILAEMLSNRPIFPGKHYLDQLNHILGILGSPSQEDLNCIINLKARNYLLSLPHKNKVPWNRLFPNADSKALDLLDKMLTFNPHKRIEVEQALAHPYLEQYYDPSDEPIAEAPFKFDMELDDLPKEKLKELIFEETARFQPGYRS
Chain of Delta-type opioid receptor (Homo sapiens) (P41143 whole entry): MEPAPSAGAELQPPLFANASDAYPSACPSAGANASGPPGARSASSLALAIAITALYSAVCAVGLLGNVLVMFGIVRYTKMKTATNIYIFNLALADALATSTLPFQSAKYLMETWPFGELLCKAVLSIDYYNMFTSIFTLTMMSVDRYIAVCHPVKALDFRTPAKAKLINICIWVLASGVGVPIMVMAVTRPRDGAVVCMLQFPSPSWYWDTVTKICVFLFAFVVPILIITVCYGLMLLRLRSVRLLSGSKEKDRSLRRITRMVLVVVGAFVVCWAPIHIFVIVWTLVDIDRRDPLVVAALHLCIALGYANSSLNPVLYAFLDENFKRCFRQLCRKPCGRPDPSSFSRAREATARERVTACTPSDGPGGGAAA
Chain of CYP2D6 (P10635 whole entry): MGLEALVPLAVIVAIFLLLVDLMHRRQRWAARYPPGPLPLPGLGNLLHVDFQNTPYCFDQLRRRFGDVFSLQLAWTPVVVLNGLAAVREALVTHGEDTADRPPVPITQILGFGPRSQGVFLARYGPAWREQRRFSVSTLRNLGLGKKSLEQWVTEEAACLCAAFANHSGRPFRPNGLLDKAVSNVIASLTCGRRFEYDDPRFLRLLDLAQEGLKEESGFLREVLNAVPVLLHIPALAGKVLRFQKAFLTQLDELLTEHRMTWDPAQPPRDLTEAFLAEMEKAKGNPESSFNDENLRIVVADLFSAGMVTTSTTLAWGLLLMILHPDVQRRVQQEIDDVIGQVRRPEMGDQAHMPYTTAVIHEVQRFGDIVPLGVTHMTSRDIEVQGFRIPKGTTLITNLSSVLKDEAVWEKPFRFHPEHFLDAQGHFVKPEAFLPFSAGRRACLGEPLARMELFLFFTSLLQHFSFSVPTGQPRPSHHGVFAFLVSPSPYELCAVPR
Chain of CYP2C9 (P11712 whole entry): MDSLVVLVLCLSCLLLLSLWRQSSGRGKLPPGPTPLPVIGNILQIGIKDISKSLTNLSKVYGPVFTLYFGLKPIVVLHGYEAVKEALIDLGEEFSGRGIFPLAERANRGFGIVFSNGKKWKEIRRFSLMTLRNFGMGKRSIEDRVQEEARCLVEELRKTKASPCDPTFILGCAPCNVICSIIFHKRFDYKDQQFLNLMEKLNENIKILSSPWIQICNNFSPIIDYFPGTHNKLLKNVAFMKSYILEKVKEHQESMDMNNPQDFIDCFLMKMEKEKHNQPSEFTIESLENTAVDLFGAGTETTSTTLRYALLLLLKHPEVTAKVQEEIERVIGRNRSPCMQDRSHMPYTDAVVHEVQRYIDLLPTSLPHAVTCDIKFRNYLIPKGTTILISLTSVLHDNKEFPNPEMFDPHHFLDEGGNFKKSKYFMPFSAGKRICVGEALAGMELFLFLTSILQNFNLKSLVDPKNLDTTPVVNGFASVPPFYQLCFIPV
Chain of Mitogen-activated protein kinase 14 (Homo sapiens) (Q16539 whole entry): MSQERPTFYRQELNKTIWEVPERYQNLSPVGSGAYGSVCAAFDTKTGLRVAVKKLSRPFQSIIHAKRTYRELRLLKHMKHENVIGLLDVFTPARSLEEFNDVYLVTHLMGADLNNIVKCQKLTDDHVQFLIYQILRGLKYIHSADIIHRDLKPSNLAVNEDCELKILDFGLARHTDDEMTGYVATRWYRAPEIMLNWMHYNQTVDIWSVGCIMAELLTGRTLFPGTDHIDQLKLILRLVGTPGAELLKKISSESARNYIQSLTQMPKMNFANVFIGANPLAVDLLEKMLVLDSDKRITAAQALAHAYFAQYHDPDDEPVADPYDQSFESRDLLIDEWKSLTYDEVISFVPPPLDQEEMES
Chain of 5-hydroxytryptamine receptor 4 (Homo sapiens) (Q13639 whole entry): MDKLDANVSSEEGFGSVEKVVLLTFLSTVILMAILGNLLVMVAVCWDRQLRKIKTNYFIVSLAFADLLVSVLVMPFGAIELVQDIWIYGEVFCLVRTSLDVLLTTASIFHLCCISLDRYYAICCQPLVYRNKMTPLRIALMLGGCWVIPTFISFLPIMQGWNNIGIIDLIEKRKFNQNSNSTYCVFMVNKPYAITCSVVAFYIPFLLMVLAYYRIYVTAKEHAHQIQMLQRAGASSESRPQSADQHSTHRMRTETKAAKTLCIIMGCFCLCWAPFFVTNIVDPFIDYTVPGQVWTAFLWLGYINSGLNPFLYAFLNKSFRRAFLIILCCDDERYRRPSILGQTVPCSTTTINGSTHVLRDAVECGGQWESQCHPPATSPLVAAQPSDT
Chain of Mu-type opioid receptor (Homo sapiens) (P35372 whole entry): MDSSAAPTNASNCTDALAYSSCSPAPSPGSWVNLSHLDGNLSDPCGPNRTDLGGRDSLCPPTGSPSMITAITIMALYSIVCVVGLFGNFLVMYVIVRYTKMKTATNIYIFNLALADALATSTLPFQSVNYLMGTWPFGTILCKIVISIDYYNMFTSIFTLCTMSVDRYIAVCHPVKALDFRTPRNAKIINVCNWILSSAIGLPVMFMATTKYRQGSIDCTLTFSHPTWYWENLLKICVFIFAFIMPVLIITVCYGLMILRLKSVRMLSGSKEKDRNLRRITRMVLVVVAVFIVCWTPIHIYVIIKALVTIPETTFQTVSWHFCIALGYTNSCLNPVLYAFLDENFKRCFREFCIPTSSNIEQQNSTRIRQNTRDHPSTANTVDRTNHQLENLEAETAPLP
Chain of B2 bradykinin receptor (Homo sapiens) (P30411 whole entry): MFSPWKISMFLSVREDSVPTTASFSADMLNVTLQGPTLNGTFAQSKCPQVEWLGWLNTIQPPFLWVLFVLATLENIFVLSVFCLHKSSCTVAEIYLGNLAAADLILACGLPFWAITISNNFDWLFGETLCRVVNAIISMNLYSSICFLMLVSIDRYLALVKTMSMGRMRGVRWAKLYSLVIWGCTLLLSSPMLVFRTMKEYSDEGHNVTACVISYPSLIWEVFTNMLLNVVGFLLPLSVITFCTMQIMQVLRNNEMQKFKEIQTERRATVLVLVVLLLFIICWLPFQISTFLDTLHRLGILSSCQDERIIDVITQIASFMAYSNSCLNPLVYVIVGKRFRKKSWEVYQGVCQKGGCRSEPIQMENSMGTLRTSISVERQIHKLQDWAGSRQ
Chain of Beta-3 adrenergic receptor (Homo sapiens) (P13945 whole entry, looked up): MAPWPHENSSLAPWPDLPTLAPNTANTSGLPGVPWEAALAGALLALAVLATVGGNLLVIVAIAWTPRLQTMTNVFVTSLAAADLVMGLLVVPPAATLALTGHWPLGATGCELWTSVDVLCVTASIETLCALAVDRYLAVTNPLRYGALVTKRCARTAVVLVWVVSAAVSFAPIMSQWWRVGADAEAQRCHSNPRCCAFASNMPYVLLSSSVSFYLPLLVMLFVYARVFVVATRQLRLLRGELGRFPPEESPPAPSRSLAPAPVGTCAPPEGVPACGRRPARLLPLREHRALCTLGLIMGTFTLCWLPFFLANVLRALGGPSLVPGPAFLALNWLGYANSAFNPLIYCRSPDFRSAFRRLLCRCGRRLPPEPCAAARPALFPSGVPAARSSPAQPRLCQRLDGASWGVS

O=C(NCc1ncc(C(F)(F)F)cc1Cl)c1ccc2c(c1)C1(CCS(=O)(=O)CC1)[C@H](C1CC1)N2S(=O)(=O)c1ccc(F)cc1 [BAY-784]
active: inhibition [15] 53%
32% (not active): inhibition at 10 µM (CYP2C9)
inactive: inhibition [1] 19% | inhibition [2] -5% | inhibition [3] 16% | inhibition [4] 15% | inhibition [5] 22% | inhibition [6] 7% | inhibition (Caspase-1 (Homo sapiens)) 8% | inhibition [7] 0% | inhibition [8] 11% | inhibition [9] -1% | inhibition [10] 50% | inhibition [11] 5% | inhibition [12] 4% | inhibition [13] 9% | inhibition [14] 0% | inhibition [16] 1%
4% (not active): inhibition at 10 µM (CYP2D6)

Reference: ChEMBL document CHEMBL4507266, “Data for DCP probe BAY-784” (2021)
